Measurements from patent US10596127B2, “Composition for reducing the frequency of urination, method of making and use thereof” (WELLESLEY PHARMACEUTICALS, LLC, priority 2013, dated 2020).

What was measured:
[1] = test system: TNFα secretion by normal human bladder smooth muscle cells; experiment: TNFα ELISA of normal human bladder smooth muscle cell supernatants; format: cell-based; conditions: no analgesic
Procedure: (§1) Culture supernatants were subjected to cytokine-specific ELISA to determine IL-1β, IL-6 and TNF-α responses in cultures of macrophages treated with analgesic, LPS alone or a combination of LPS and analgesic. The assays were performed on Nunc MaxiSorp Immunoplates (Nunc) coated overnight with 100 μl of anti-mouse IL-6, TNF-α mAbs (BD Biosciences) or IL-1β mAb (R&D Systems) in 0.1 M sodium bicarbonate buffer (pH 9.5). After two washes with PBS (200 μl per well), 200 μl of PBS 3% BSA were added in each well (blocking) and the plates incubated for 2 hours at room temperature. Plates were washed again two times by addition of 200 μl per well, 100 μl of cytokine standards and serial dilutions of culture supernatants were added in duplicate and the plates were incubated overnight at 4° C. Finally, the plates were washed twice and incubated with 100 μl of secondary biotinylated anti-mouse IL-6, TNFα mAbs (BD Biosciences) or IL-1β (R&D Systems) followed by peroxidase-labelled goat anti-biotin mAb (Vector Laboratories). The colorimetric reaction was developed by the addition of 2,2′-azino-bis(3)-ethylbenzylthiazoline-6-sulfonic acid (ABTS) substrate and H2O2 (Sigma) and the absorbance measured at 415 nm with a Victor® V multilabel plate reader (PerkinElmer).
(§2) Normal human bladder smooth muscle cells were isolated by enzymatic digestion from macroscopically normal pieces of human bladder. Cells were expended in vitro by culture at 37° C. in a 5% CO2 atmosphere in RPMI 1640 supplemented with 10% fetal bovine serum, 15 mM HEPES, 2 mM L-glutamine, 100 U/ml penicillin, and […] of streptomycin and passage once a week by treatment with trypsin to detach cells followed by reseeding in a new culture flask. The first week of culture, the culture medium was supplemented with 0.5 ng/ml epidermal growth factor, 2 ng/ml fibroblast growth factor, and 5 μg/ml insulin.
(§3) Bladder smooth muscle cells trypsinized and seeded in microculture plates at a cell density of 3×10^4 cells per well in 100 μl were treated with analgesic solutions (50 μl/well) either alone or together carbachol (10-Molar, 50 μl/well), as an example of non-inflammatory stimuli, or lipopolysaccharide (LPS) of Salmonella typhimurium (1 μg/ml, 50 μl/well), as an example of […] stimuli. When no other effectors were added to the cells, 50 μl of RPMI 1640 without fetal bovine serum were added to the wells to adjust the final volume to 200 μl.
(§4) After 24 hours of culture, 150 μl of culture supernatants were collected, spun down for 2 min at 8,000 rpm at 4° C. to remove cells and debris and stored at −70° C. for analysis of Prostaglandin E2 (PGE2) responses by ELISA. Cells were fixed, permeabilized and blocked for detection of COX2 using a fluorogenic substrate. In selected experiment cells were stimulated 12 hours in vitro for analysis of COX2, PGE2 and cytokine responses.
(§5) COX2 and PGE2 responses were analyzed as described in Example 3. Cytokine responses were analyzed as described in Example 2.

[2] = test system: IL-6 secretion by normal human bladder smooth muscle cells; experiment: IL-6 ELISA of normal human bladder smooth muscle cell supernatants; format: cell-based; conditions: stimulus alone, no analgesic (Carbachol 10^−3 M; LPS 10 μg/ml); unstimulated <5
[3] = test system: COX2 expression by normal human bladder smooth muscle cells; experiment: Cell-based ELISA of total COX2 in normal human bladder smooth muscle cells
Procedure: COX2 responses were analyzed by a Cell-Based ELISA using Human/mouse total COX2 immunoassay (R&D Systems), following the instructions of the manufacturer. Briefly, after cells fixation and permeabilization, a mouse anti-total COX2 and a rabbit anti-total GAPDH were added to the wells of the clear-bottom black 96-well cell culture microculture plates. After incubation and washes, an HRP-conjugated anti-mouse IgG and an AP-conjugated anti-rabbit IgG were added to the wells. Following another incubation and set of washes, the HRP- and AP-fluorogenic substrates were added. Finally, a Victor® V multilabel plate reader (PerkinElmer) was used to read the fluorescence emitted at 600 nm (COX2 fluorescence) and 450 nm (GAPDH fluorescence). Results are expressed as relative levels of total COX2 as determined by relative fluorescence unit (RFUs) and normalized to the housekeeping protein GAPDH.
as §2
(§6) […] When no other effectors were added to the cells, 50 μl of RPMI 1640 without fetal bovine serum were added to the wells to adjust the final volume to 200 μl.
as §4, §5

[4] = test system: IL-6 secretion by normal human bladder smooth muscle cells; experiment: IL-6 ELISA of normal human bladder smooth muscle cell supernatants; format: cell-based; conditions: no analgesic
Procedure: as §1, §2, §3, §4, §5

[5] = test system: PGE2 secretion by normal human bladder smooth muscle cells; experiment: PGE2 ELISA of normal human bladder smooth muscle cell supernatants; format: cell-based
Procedure: Prostaglandin E2 responses were analyzed by a sequential competitive ELISA (R&D Systems). More specifically, culture supernatants or PGE2 standards were added to the wells of a 96-well polystyrene microplate coated with a goat anti-mouse polyclonal antibody. After one hour incubation on a microplate shaker, an HRP-conjugated PGE2 was added and plates incubated for an additional two hours at room temperature. The plates were then washed and HRP substrate solution added to each well. The color was allowed to develop for 30 min and the reaction stopped by addition sulfuric acid before reading the plate at 450 nm with wavelength correction at 570 nm. Results are expressed as mean pg/ml of PGE2.
as §2, §6, §4, §5

[6] = test system: TNFα secretion by normal human bladder smooth muscle cells; experiment: TNFα ELISA of normal human bladder smooth muscle cell supernatants; format: cell-based; conditions: stimulus alone, no analgesic (Carbachol 10^−3 M; LPS 10 μg/ml); unstimulated <5
[7] = test system: expression of co-stimulatory molecules by Raw 264 macrophage cells; experiment: Flow cytometry of co-stimulatory molecules CD40 and CD80 on macrophages treated with analgesic, with or without LPS; format: cell-based, Murine; conditions: LPS 5 ng/ml alone, no analgesic; negative control 20.6
Procedure: Murine RAW264.7 or J774 macrophage cells (obtained from ATCC) were used in this study. Cells were maintained in a culture medium containing RPMI 1640 supplemented with 10% fetal bovine serum (FBS), 15 mM HEPES, 2 mM L-glutamine, 100 U/ml penicillin, and 100 μg/ml of streptomycin. Cells were cultured at 37° C. in a 5% CO2 atmosphere and split (passages) once a week.
RAW264.7 macrophage cells were seeded in 96-well plates at a cell density of 1.5×10^5 cells per well in 100 μl of the culture medium. […] Briefly, the analgesics were dissolved in FBS-free culture medium (i.e., RPMI 1640 supplemented with 15 mM HEPES, 2 mM L-glutamine, 100 U/ml penicillin, and 100 μg/ml of streptomycin), and diluted to desired concentrations by serial dilution with the same medium. For cells treated with analgesic in the absence of LPS, 50 μl of analgesic solution and 50 μl of FBS-free culture medium were added to each well. For cells treated with analgesic in the presence of LPS, 50 μl of analgesic solution and 50 μl of LPS (from Salmonella typhimurium) in FBS-free culture medium were added to each well. All conditions were tested in duplicates.
After 24 or 48 hours of culture, 150 μl of culture supernatants were collected, spun down for 2 min at 8,000 rpm at 4° C. to remove cells and debris and stored at −70° C. for analysis of cytokine responses by ELISA. The cells were collected and washed by centrifugation (5 min at 1,500 rpm at 4° C.) in 500 μl of Phosphate buffer (PBS). Half of the cells were then snap frozen in liquid nitrogen and stored at −70° C. The remaining cells were stained with fluorescent monoclonal antibodies and analyzed by flow cytometry.
For flow cytometry analysis, macrophages were diluted in 100 μl of FACS buffer (phosphate buffered saline (PBS) with 2% bovine serum albumin (BSA) and 0.01% NaN3) and stained 30 min at 4° C. by addition of FITC-conjugated anti-CD40, PE-conjugated anti-CD80, PE-conjugated anti-CD86 antibody, anti MHC class II (I-A^d) PE (BD Bioscience). Cells were then washed by centrifugation (5 min at 1,500 rpm at 4° C.) in 300 μl of FACS buffer. After a second wash, cells were re-suspended in 200 μl of FACS buffer and the percentage of cells expressing a given marker (single positive), or a combination of markers (double positive) were analyzed with the aid of an Accuri C6 flow cytometer (BD Biosciences).

[8] = stimulus alone, no analgesic (Carbachol 10^−3 M; LPS 10 μg/ml), unstimulated <20.5

lipopolysaccharide [LPS]
TNFα responses to stimulus alone [1]: massive induction | IL-6 (pg/ml) Subject 1 [2]: 4838 pg/mL | IL-6 (pg/ml) Subject 2 [2]: 4383 pg/mL | COX2 responses to stimulus alone ([3]; no analgesic): higher levels of COX2 responses | Total COX2 levels (Normalized RFUs) subject 2 ([3]; stimulus alone, no analgesic (Carbachol 10^−3 M; LPS 10 μg/ml), unstimulated 199): 633 Normalized RFUs | Total COX2 levels (Normalized RFUs) subject 1 ([3]; stimulus alone, no analgesic (Carbachol 10^−3 M; LPS 10 μg/ml), unstimulated 230): 672 Normalized RFUs | IL-6 responses to stimulus alone [4]: massive induction | PGE2 production in response to stimulus alone ([5]; no analgesic): induced production of PGE2 | PGE2 levels (pg/ml) Subject 1 [5, 8]: 1125 pg/mL | PGE2 levels (pg/ml) Subject 2 [5, 8]: 998 pg/mL | TNFα (pg/ml) Subject 1 [6]: 5725 pg/mL | TNFα (pg/ml) Subject 2 [6]: 4107 pg/mL | % Positive CD40+CD80+ [7]: 77.8%
